Measured values reported in ChEMBL document CHEMBL1909046, “DrugMatrix in vitro pharmacology data”.

Key:
[1] = molecular target: C-C chemokine receptor type 2 (Homo sapiens, UniProt P41597); assay type: cell membranes, Membrane; settings: cho-k1; also: in other assays of this panel Not Active means under 50% inhibition at 10 µM
[2] = DRUGMATRIX: GABAA, Muscimol, Central radioligand binding (ligand: [3H] Muscimol); assay type: cell membranes, Rattus norvegicus, Wistar, Brain, Membrane; settings: Not Active = under 50% inhibition at 10 µM
[3] = molecular target: T1, 3-hydroxy-3-methylglutaryl-coenzyme A reductase (Homo sapiens, UniProt P04035); set-up: species or system Escherichia coli;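 also: enzyme inhibition assay of HMG-CoA reductase using radiolabeled [14C]HMG-CoA as substrate; in other assays of this panel Not Active means under 50% inhibition at 10 µM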
T1 sequence (P04035 whole entry): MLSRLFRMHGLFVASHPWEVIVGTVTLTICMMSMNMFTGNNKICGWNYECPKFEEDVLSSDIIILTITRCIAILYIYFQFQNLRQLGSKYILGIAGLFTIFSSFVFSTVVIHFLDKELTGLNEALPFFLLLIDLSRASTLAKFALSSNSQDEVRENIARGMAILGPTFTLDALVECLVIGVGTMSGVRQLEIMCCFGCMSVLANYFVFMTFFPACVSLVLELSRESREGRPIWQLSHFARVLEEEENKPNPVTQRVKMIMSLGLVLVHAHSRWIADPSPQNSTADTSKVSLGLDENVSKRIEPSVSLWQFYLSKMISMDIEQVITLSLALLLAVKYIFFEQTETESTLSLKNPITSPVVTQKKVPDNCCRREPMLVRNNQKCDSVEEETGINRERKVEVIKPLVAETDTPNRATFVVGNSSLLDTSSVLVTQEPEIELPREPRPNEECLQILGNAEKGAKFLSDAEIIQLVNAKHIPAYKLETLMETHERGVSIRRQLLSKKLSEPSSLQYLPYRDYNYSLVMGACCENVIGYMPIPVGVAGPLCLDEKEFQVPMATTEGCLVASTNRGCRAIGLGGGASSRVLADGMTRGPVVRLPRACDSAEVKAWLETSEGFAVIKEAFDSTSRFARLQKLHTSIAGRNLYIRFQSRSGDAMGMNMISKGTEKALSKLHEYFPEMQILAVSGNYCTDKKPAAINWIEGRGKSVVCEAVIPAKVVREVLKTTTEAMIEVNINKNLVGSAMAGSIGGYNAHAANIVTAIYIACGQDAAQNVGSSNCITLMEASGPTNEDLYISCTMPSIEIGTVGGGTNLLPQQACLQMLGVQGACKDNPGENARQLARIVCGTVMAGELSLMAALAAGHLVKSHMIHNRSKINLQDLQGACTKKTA

[4] = molecular target: T2, Muscarinic acetylcholine receptor M2 (Homo sapiens, UniProt P08172); assay type: cell membranes, CHO-K1, Membrane; settings: cho-k1; also: in other assays of this panel Not Active means under 50% inhibition at 10 µM
T2 sequence (P08172 whole entry): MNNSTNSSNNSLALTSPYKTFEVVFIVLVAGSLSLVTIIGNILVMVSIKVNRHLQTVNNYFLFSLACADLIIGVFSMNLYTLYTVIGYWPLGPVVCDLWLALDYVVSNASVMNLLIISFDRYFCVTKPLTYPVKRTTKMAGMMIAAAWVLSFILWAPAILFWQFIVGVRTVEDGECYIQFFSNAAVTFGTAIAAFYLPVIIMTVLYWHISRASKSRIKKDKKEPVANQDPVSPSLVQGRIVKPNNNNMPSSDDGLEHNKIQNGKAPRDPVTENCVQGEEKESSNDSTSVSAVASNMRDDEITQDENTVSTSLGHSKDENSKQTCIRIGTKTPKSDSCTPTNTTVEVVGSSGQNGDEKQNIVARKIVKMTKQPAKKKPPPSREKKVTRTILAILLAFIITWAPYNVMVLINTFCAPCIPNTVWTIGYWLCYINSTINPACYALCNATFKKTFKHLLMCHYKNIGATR

[5] = molecular target: Platelet-activating factor receptor (Homo sapiens, UniProt P25105); assay type: tissue-based; also: in other assays of this panel Not Active means under 50% inhibition at 10 µM
Chain of Platelet-activating factor receptor (P25105 whole entry): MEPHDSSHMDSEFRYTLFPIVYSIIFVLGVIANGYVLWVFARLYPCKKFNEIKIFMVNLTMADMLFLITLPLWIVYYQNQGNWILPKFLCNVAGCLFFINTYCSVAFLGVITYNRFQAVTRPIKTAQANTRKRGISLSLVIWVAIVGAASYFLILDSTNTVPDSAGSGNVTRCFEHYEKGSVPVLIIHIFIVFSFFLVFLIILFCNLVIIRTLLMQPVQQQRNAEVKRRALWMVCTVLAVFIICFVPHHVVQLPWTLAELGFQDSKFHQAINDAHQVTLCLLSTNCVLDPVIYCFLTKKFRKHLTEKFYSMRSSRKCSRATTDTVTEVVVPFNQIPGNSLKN

Progesterone receptor = molecular target: T3, Progesterone receptor (Bos taurus, UniProt Q690N0); test: DRUGMATRIX: Progesterone radioligand binding (ligand: [3H] R-5020); assay type: tissue-based, Uterus; settings: Not Active = under 50% inhibition at 10 µM
T3 sequence (Q690N0 whole entry): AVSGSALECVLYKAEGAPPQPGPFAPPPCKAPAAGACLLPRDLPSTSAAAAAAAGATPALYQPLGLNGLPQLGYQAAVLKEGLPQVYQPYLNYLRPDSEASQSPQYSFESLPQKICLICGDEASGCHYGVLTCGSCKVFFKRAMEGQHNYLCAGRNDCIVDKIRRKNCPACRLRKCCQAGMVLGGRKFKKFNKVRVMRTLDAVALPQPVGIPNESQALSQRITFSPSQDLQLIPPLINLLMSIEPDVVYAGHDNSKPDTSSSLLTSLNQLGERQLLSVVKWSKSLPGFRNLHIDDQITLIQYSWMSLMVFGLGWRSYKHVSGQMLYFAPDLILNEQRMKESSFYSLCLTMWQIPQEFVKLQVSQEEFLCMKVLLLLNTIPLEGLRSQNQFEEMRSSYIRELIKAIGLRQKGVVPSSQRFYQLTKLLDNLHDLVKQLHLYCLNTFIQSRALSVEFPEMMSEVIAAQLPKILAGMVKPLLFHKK

Cytochrome P450 1A2 = molecular target: T4, Cytochrome P450 1A2 (Homo sapiens, UniProt P05177); settings: bti-tn-5b1-4; also: in other assays of this panel Not Active means under 50% inhibition at 10 µM
T4 sequence (P05177 whole entry): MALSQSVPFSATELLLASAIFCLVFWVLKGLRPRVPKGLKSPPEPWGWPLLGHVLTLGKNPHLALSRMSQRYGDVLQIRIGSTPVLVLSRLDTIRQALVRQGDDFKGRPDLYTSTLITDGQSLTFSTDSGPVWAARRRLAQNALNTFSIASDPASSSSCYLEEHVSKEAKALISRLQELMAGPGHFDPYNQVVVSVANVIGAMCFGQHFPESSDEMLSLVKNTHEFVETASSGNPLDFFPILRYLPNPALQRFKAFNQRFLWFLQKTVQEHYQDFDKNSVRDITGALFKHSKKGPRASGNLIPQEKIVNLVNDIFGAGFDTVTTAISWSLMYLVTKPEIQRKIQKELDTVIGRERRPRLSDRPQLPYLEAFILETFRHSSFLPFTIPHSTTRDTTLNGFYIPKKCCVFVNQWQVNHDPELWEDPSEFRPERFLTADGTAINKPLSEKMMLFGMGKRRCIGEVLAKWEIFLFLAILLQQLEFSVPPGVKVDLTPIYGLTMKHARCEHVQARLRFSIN

Cytochrome P450 2C9 = Cytochrome P450 2C9 (Homo sapiens, UniProt P11712); settings: bti-tn-5b1-4; also: in other assays of this panel Not Active means under 50% inhibition at 10 µM
Chain of Cytochrome P450 2C9 (P11712 whole entry): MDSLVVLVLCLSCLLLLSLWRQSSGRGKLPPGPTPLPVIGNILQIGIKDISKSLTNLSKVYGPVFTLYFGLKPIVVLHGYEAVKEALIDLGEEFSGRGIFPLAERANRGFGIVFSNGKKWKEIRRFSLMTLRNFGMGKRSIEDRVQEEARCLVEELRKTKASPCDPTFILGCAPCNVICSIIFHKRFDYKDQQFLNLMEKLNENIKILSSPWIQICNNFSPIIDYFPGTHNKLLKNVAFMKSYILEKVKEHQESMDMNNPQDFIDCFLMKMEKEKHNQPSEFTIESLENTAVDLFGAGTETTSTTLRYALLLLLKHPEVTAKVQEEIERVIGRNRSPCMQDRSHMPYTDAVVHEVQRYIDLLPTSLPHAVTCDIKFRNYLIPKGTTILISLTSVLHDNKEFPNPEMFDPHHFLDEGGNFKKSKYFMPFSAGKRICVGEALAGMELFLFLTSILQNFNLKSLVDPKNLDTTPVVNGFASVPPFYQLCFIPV

Chain of C-C chemokine receptor type 2 (P41597 whole entry): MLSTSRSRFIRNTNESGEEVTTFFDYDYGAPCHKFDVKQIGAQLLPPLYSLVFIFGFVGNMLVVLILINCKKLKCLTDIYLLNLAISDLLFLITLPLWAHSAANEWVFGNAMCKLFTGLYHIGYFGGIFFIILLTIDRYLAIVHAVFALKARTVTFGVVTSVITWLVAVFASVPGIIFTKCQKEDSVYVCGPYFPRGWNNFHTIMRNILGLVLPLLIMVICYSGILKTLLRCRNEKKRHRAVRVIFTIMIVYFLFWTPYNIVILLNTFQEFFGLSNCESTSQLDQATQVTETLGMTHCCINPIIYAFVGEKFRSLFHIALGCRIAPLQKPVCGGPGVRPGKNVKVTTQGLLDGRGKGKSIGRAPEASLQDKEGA

CCN1CCC[C@H]1CNC(=O)c1cc(S(N)(=O)=O)ccc1OC [LEVOSULPIRIDE]
Not Active: IC50 [1] | IC50 [2] | Ki [2] | IC50 [3] | IC50 [4] | IC50 [5] | IC50 (Progesterone receptor) | IC50 (Cytochrome P450 1A2) | Ki (Cytochrome P450 1A2) | IC50 (Cytochrome P450 2C9) | Ki (Cytochrome P450 2C9)

O=C1Nc2ccc(Cl)cc2C(c2ccccc2Cl)=NC1O (stereo not given) [LORAZEPAM]
Not Active: IC50 [1] | IC50 [2] | Ki [2] | IC50 [3] | IC50 [4] | IC50 [5] | IC50 (Progesterone receptor) | IC50 (Cytochrome P450 1A2) | Ki (Cytochrome P450 1A2) | IC50 (Cytochrome P450 2C9) | Ki (Cytochrome P450 2C9)

CO[C@@H]1[C@@H](OC)[C@H](C)[C@@](O)(CC(=O)O)O[C@H]1[C@H](C)[C@H]1O[C@@]2(CC[C@@](C)([C@H]3CC[C@@](C)([C@@H]4O[C@@H]([C@H]5O[C@](C)(O)[C@H](C)C[C@@H]5C)C[C@@H]4O[C@@H]4C[C@H](OC)[C@@H](OC)[C@H](C)O4)O3)O2)C[C@H](O)[C@H]1C [MADURAMICIN ACID]
Not Active: IC50 [1] | IC50 [2] | Ki [2] | IC50 [3] | IC50 [4] | IC50 [5] | IC50 (Progesterone receptor) | IC50 (Cytochrome P450 1A2) | Ki (Cytochrome P450 1A2) | IC50 (Cytochrome P450 2C9) | Ki (Cytochrome P450 2C9)

C[C@H]1C[C@@H]2[C@H]([C@@H](O)C[C@@]3(C)[C@H]2CC[C@]3(O)C(=O)CO)[C@@]2(C)C=CC(=O)C=C12 [METHYLPREDNISOLONE]
Not Active: IC50 [1] | IC50 [2] | Ki [2] | IC50 [3] | IC50 [4] | IC50 [5] | IC50 (Progesterone receptor) | IC50 (Cytochrome P450 1A2) | Ki (Cytochrome P450 1A2) | IC50 (Cytochrome P450 2C9) | Ki (Cytochrome P450 2C9)

Cc1cccc(C)c1OCC(C)N (stereo not given) [MEXILETINE]
Not Active: IC50 [1] | IC50 [2] | Ki [2] | IC50 [3] | IC50 [4] | IC50 [5] | IC50 (Progesterone receptor) | IC50 (Cytochrome P450 1A2) | Ki (Cytochrome P450 1A2) | IC50 (Cytochrome P450 2C9) | Ki (Cytochrome P450 2C9)

Nc1cc(N2CCCCC2)nc(N)[n+]1[O-] [MINOXIDIL]
Not Active: IC50 [1] | IC50 [2] | Ki [2] | IC50 [3] | IC50 [4] | IC50 [5] | IC50 (Progesterone receptor) | IC50 (Cytochrome P450 1A2) | Ki (Cytochrome P450 1A2) | IC50 (Cytochrome P450 2C9) | Ki (Cytochrome P450 2C9)

CO[C@H]1/C=C/O[C@@]2(C)Oc3c(C)c(O)c4c(O)c(c(/C=N/N5CCN(C6CCCC6)CC5)c(O)c4c3C2=O)NC(=O)/C(C)=C\C=C\[C@H](C)[C@H](O)[C@@H](C)[C@@H](O)[C@@H](C)[C@H](OC(C)=O)[C@@H]1C [RIFAPENTINE]
Not Active: IC50 [1] | IC50 [2] | Ki [2] | IC50 [3] | IC50 [4] | IC50 [5] | IC50 (Progesterone receptor) | IC50 (Cytochrome P450 1A2) | Ki (Cytochrome P450 1A2) | IC50 (Cytochrome P450 2C9) | Ki (Cytochrome P450 2C9)

CCCCOc1cc(CC2CNC(=O)N2)ccc1OC (stereo not given) [RO-201724]
Not Active: IC50 [1] | IC50 [2] | Ki [2] | IC50 [3] | IC50 [4] | IC50 [5] | IC50 (Progesterone receptor) | IC50 (Cytochrome P450 1A2) | Ki (Cytochrome P450 1A2) | IC50 (Cytochrome P450 2C9) | Ki (Cytochrome P450 2C9)

CC[C@@H](C(=O)[C@@H](C)[C@@H](O)[C@H](C)[C@@H]1O[C@@H]([C@@H](CC)C(=O)O)CC[C@@H]1C)[C@H]1O[C@]2(C=C[C@@H](O)[C@]3(CC[C@@](C)([C@H]4CC[C@](O)(CC)[C@H](C)O4)O3)O2)[C@H](C)C[C@@H]1C [SALINOMYCIN]
Not Active: IC50 [1] | IC50 [2] | Ki [2] | IC50 [3] | IC50 [4] | IC50 [5] | IC50 (Progesterone receptor) | IC50 (Cytochrome P450 1A2) | Ki (Cytochrome P450 1A2) | IC50 (Cytochrome P450 2C9) | Ki (Cytochrome P450 2C9)

O=C(Oc1ccccc1C(=O)O)c1ccccc1O [SALSALATE]
Not Active: IC50 [1] | IC50 [2] | Ki [2] | IC50 [3] | IC50 [4] | IC50 [5] | IC50 (Progesterone receptor) | IC50 (Cytochrome P450 1A2) | Ki (Cytochrome P450 1A2) | IC50 (Cytochrome P450 2C9) | Ki (Cytochrome P450 2C9)

O=C(O)c1cn(-c2ccc(F)cc2)c2cc(N3CCNCC3)c(F)cc2c1=O [SARAFLOXACIN]
Not Active: IC50 [1] | IC50 [2] | Ki [2] | IC50 [3] | IC50 [4] | IC50 [5] | IC50 (Progesterone receptor) | IC50 (Cytochrome P450 1A2) | Ki (Cytochrome P450 1A2) | IC50 (Cytochrome P450 2C9) | Ki (Cytochrome P450 2C9)

CC(C)NCC(O)c1ccc(NS(C)(=O)=O)cc1 (stereo not given) [SOTALOL]
Not Active: IC50 [1] | IC50 [2] | Ki [2] | IC50 [3] | IC50 [4] | IC50 [5] | IC50 (Progesterone receptor) | IC50 (Cytochrome P450 1A2) | Ki (Cytochrome P450 1A2) | IC50 (Cytochrome P450 2C9) | Ki (Cytochrome P450 2C9)

O.O.O.O.O.O.[Cl-].[Cl-].[Sr+2] [STRONTIUM CHLORIDE HEXAHYDRATE]
Not Active: IC50 [1] | IC50 [2] | Ki [2] | IC50 [3] | IC50 [4] | IC50 [5] | IC50 (Progesterone receptor) | IC50 (Cytochrome P450 1A2) | Ki (Cytochrome P450 1A2) | IC50 (Cytochrome P450 2C9) | Ki (Cytochrome P450 2C9)

O=C1C(CC[S+]([O-])c2ccccc2)C(=O)N(c2ccccc2)N1c1ccccc1 (stereo not given) [SULFINPYRAZONE]
Not Active: IC50 [1] | IC50 [2] | Ki [2] | IC50 [3] | IC50 [4] | IC50 [5] | IC50 (Progesterone receptor) | IC50 (Cytochrome P450 1A2) | Ki (Cytochrome P450 1A2) | IC50 (Cytochrome P450 2C9) | Ki (Cytochrome P450 2C9)

CN(C/C=C/C#CC(C)(C)C)Cc1cccc2ccccc12 [TERBINAFINE]
Not Active: IC50 [1] | IC50 [2] | Ki [2] | IC50 [3] | IC50 [4] | IC50 [5] | IC50 (Progesterone receptor) | IC50 (Cytochrome P450 1A2) | Ki (Cytochrome P450 1A2) | IC50 (Cytochrome P450 2C9) | Ki (Cytochrome P450 2C9)
